One assay has as its system HLH-30. Briefly: HLH-30 expression and activity in C. elegans (GFP reporter, immunoblot, qRT-PCR). The format is in vivo. Particulars: for HLH-30:GFP protein by immunoblot: MAH235 young adult worms. How it is done: FIG. 9A-9B illustrates that coumarin 106 (“C1”. “AIC106”) induces TFEB (HLH-30) signaling in C. elegans. FIG. 9A) Nuclear TFEB homologue HLH-30 levels in HLH-30 GFP tagged worms grown from day 1 at 20° C. as a measure of TFEB activation. Values are reported as average GFP intensity visualized at a young adult stage, day-5; **p<0.0002 versus control. FIG. 9B) TFEB mRNA levels by qPCR following 24 hrs of C1 treatment (10 μM 20 μM) in worms+/−HLH30 RNAi. Values represent RNA levels versus DMSO-only control RNAi; *p<0.001 versus control RNAi.
FIG. 18, panels A-F: AIC106 (Autophagy Inducing Coumarin-106) induces transcription of TFEB and its targets in vitro in rat N27 neuronal cells and in vivo in C. elegans. Panel A) Relative fold change in TFEB promoter activity compared to DMSO-control was determined by quantifying luciferase activity in supernatants collected from rat N27 neuronal cells post-24 hour treatment with C1 (AIC106), D1 and D2. [n=3 independent experiments (mean±SEM), **p<0.01, by one-way ANOVA with Dunnett's multiple comparisons test]. Panel B) Chemical structure of AIC106 and its structural derivative D1 and D2. Panel C) Relative fold change in mRNA of tfeb and its targets compared to DMSO-control were quantified using qRT-PCR in N27 neuronal cells post-24 hour treatment with AIC106 [N=3 independent experiments (mean±SD). *p<0.05, **p<0.01 and ****p<0.0001, by two-way ANOVA with Sidak's multiple comparisons test]. Panel D) Changes in HLH-30 expression were measured by quantifying GFP intensity in an individual GFP-tagged HLH-30 strain (MAH235) post-24 hours treatment with AIC106 and DMSO-control. [N=3 independent experiments (mean±SD). ****p<0.0001, by unpaired t-test]. Panel E) HLH-30; GFP (MAH235) were monitored by fluorescence microscopy. Panel F) Relative fold change in mRNA of hlh-30 and its targets compared to DMSO-control were quantified using qRT-PCR in young adult wild type N2 worms post-24 hours treatment with AIC106. [N=3 independent experiments (mean±SD). *p<0.05, **p<0.01 and ***p<0.001, by two-way ANOVA with Sidak's multiple comparisons test].
FIG. 22, panels A-H: AIC106-induced HLH-30 expression is mediated by the nuclear hormone receptor DAF-12. Panel A) The upstream promoter region (2 kB) of hlh-30 was analyzed by JASPAR CORE database to determine DAF-12 binding sites (1: SEQ ID NO:1, 2: 1: SEQ ID NO:2, 3: SEQ ID NO:3, 4: SEQ ID NO:4, 5: SEQ ID NO:5, 6: SEQ ID NO:6, 7: SEQ ID NO:7, 8: SEQ ID NO:8, 9: SEQ ID NO:9, 10: SEQ ID NO:10, 11: SEQ ID NO:11, 12: SEQ ID NO:12). Panel B) Relative fold change in mRNA of hlh-30 compared to DMSO-control was quantified using qRT-PCR in young adult wild-type N2 and daf-12(rh61rh411) worms post-24 hours treatment with AIC106. [N=3 independent experiments (mean±SD). **p<0.01, by one-way ANOVA with Sidak's multiple comparisons test]. Panel C) Effects of AIC106 on DAF-12 activity was determined in a mammalian one-hybrid assay by quantifying changes in the luciferase activity of DAF-12 ligand (dafachronic acid, DA) induced treatment. [N=3 independent experiments (mean±SD). *p<0.05 **p<0.01 and ***p<0.001, by one-way ANOVA with Tukey's multiple comparisons test]. Panel D) Schematic diagram showing that addition of AIC106 or inhibition of DAF-12 ligand synthesis, which leads to un-liganded DAF-12 may result in enhanced HLH-30 expression. Panel E) Dafadine-A (DFA), a specific inhibitor of key enzyme required for synthesis of DAF-12 ligand induces HLH-30 expression. Immunoblot for GFP was performed on protein lysate of HLH-30; GFP (MAH235) young adult worms treated with DFA or DMSO-control for 24 hours. Panel F) Protection against mitochondrial toxin (FCCP) was determined by quantifying survival of young adult worms treated 24 hours with DFA or DMSO-control. [N=3 independent experiments (mean±SD). **p<0.01, by two-way ANOVA with Tukey's multiple comparisons test]. […]
(In general: In western blotting, separated proteins are transferred to a membrane and probed.)

The test system of a further assay is C. elegans. Briefly: FCCP mitochondrial toxin stress assay in C. elegans. The format is in vivo. Particulars: for resistance to mitochondrial toxin FCCP (survival): wild type worms, 24 hours treatment. The procedure:
FIG. 20, panels A-H: AIC106 treatment improves mitochondrial health. Panel A) Changes in mitochondrial membrane potential were determined by quantifying fluorescence intensity of individual TMRM stained wild type N2 worms post-24 hours treatment with AIC106 and DMSO-control. [N=3 independent experiments (mean±SD). ****p<0.0001, by unpaired t-test]. Panel B) TMRM stained wild type N2 worms were monitored by fluorescence microscopy. Panel C) Mitophagy flux upon AIC106 treatment was determined in DLM14 young adult worms (TOMM-7 tagged to a peptide linked dual-Fluorescent GFP) by quantifying relative fold changes in ratio of monomeric-fluorescent protein (mFP) to dual-fluorescent protein (dFP) compared to DMSO-control. Panel D) Ability of AIC106 to rescue mitochondrial toxin (FCCP) sensitivity was determined as percent survival of 24 hours treated AIC106 and DMSO-control wild type N2 worms. [N=3 independent experiments (mean±SD). ****p<0.0001, by two-way ANOVA with Sidak's multiple comparisons test]. Panel E) Ability of AIC106 to rescue enhanced mitochondrial toxin (FCCP, 20 μM) sensitivity in mitophagy deficient parkin/pdr-1 mutant was determined as percent survival of 24 hours treated AIC106 and DMSO-control pdr-1(tm598) and pdr-1(tm598); hlh-30(tm1978) mutant. […] Panel F) Effect of AIC106 on mitochondrial biogenesis was determined by quantifying GFP fluorescence intensity in an individual SJ4143 worm (GFP targeted in mitochondria of intestinal cells) post-72 hours of treatment with AIC106 and DMSO-control. […] Panel G) SJ4143 worms were monitored by fluorescence microscopy. Panel H) Effects of AIC106 on basal (B) and maximum (M) mitochondrial respiration rate were determined by quantifying oxygen consumption rate (OCR) in wild type N2 and hlh-30(tm1978) mutant strain post-24 hours of treatment with AIC106 and DMSO-control. […]
FIG. 22, panels A-H: AIC106-induced HLH-30 expression is mediated by the nuclear hormone receptor DAF-12. […] Panel F) Protection against mitochondrial toxin (FCCP) was determined by quantifying survival of young adult worms treated 24 hours with DFA or DMSO-control. […]

For `Cc1cccc(C)c1OCc1cc(C(=O)N2CCC(c3ccncc3)CC2)no1` [DFA, dafadine-A, reference compound], in the assay on HLH-30 (24 hours), the “HLH-30:GFP protein by immunoblot” value is given as “significant increase in HLH-30 expression”. Besides, in the assay with C. elegans, the “resistance to mitochondrial toxin FCCP (survival)” value was “protected against mitochondrial toxin FCCP”.

As for `O=c1oc2c3c4c(cc2c2c1CCC2)CCCN4CCC3` [C1, 2,3,6,7,10,11-Hexahydro-1H,5H-cyclopenta(3,4)(1)benzopyrano(6,7,8-ij)quinolizin-12(9H)-one], the “activity and expression of HLH-30” value in the assay with HLH-30 (Example 1 (FIG. 9)) is “induction of activity and expression of the worm TFEB homologue HLH-30”. In addition, the “HLH-30 expression (GFP intensity)” value in the assay with HLH-30 (GFP-tagged HLH-30 strain MAH235, 24 hours) is reported as “induces HLH-30 expression in worms”. Moreover, in the assay with HLH-30 (24 hours), the “HLH-30:GFP protein by immunoblot” value is reported as “increase in HLH-30:GFP protein”. For the same compound, in the assay with HLH-30 (daf-12(rh61rh411) null mutant), the “HLH-30 expression (hlh-30 mRNA)” value was “failed to induce HLH-30 expression”. For the same compound, in the assay with HLH-30 (wild type N2 worms, 24 hours), the “mRNA levels of HLH-30 target genes” value was “mRNA levels of several HLH-30 target genes were also increased”. For the same compound, the “FCCP sensitivity of pdr-1 mutant” value in the assay with C. elegans (pdr-1(tm598), FCCP 20 μM, hlh-30 dependent) is recorded as “significantly rescue enhanced mitochondrial sensitivity of pdr-1 mutant”. The “resistance to mitochondrial toxin FCCP (survival)” value in the assay with C. elegans was “more resistant to mitochondrial uncoupler FCCP”.

These data come from US12673039B2, “Methods of inducing autophagy using coumarin derivatives and related compounds” (Buck Institute for Research on Aging, priority 2019, dated 2026).
